{
  "source": "ChEMBL document CHEMBL1131247",
  "about": "“Substituted naphthofurans as hallucinogenic phenethylamine-ergoline hybrid molecules with unexpected muscarinic antagonist activity” (J Med Chem, 1998)",
  "key": {"[1]": {"target": "T1, Muscarinic acetylcholine receptor M2 (Rattus norvegicus) (UniProt P10980)", "T1 sequence (whole entry)": "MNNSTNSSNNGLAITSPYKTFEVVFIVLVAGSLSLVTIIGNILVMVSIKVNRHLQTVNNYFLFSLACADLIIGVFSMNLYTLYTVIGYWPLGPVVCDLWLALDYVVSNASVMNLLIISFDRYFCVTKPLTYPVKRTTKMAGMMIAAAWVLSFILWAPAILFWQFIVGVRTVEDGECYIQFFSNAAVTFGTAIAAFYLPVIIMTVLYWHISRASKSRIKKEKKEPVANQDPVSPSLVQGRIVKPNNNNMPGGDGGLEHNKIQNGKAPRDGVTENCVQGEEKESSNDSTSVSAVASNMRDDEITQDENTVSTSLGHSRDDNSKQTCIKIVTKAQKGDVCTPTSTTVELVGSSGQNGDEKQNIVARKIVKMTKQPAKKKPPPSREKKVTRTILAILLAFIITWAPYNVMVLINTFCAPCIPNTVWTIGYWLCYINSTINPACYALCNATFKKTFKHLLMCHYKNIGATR", "description": "Compound was evaluated for the affinity at the cloned radio labelled Muscarinic acetylcholine receptor M2"}, "[2]": {"target": "T2, Muscarinic acetylcholine receptor M4 (Rattus norvegicus) (UniProt P08485)", "T2 sequence (whole entry)": "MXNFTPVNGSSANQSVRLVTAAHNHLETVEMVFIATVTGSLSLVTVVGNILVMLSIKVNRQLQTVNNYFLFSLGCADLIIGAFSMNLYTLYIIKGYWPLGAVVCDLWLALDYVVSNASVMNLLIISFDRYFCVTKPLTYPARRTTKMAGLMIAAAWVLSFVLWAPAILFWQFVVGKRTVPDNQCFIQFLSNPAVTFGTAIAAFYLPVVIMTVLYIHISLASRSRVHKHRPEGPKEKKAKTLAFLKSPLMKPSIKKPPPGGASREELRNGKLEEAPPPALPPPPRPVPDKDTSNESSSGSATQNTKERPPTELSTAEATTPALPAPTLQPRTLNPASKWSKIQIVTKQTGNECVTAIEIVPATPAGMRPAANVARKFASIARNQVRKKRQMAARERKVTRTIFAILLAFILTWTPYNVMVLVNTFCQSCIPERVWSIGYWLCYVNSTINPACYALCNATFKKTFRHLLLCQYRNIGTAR", "description": "Compound was evaluated for the affinity at the cloned radio labelled Muscarinic acetylcholine receptor M4"}, "[3]": {"target": "T3, Muscarinic acetylcholine receptor M5 (Rattus norvegicus) (UniProt P08911)", "T3 sequence (whole entry)": "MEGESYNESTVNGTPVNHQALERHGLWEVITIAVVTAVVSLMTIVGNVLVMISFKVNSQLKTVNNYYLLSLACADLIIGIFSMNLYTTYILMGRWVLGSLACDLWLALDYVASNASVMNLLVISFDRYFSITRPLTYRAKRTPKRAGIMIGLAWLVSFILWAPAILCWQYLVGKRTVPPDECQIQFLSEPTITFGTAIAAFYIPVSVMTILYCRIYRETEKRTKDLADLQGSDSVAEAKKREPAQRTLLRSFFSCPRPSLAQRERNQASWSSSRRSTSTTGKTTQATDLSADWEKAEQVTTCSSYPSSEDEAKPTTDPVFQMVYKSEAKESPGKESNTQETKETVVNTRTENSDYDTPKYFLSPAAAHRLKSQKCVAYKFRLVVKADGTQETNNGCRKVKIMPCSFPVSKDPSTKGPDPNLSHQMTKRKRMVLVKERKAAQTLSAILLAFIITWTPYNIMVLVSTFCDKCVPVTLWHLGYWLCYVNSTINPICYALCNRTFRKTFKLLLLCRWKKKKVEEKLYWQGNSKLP", "description": "Compound was evaluated for the affinity at the cloned radio labelled Muscarinic acetylcholine receptor M5"}, "[4]": {"target": "T4, Muscarinic acetylcholine receptor M1 (Mus musculus) (UniProt P12657)", "T4 sequence (whole entry)": "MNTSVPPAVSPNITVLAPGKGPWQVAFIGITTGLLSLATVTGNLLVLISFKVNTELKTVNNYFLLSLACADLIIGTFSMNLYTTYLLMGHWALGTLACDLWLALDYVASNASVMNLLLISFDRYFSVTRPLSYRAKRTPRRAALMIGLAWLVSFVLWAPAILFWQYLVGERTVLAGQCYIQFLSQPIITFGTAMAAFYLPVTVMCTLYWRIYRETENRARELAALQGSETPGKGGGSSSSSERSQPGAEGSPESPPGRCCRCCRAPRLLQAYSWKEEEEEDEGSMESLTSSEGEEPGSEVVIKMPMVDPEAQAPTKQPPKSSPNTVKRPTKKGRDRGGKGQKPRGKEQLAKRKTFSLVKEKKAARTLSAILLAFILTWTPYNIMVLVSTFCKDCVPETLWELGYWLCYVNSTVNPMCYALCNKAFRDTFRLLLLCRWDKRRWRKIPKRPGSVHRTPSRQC", "description": "Compound was evaluated for the affinity at the cloned radio labelled Muscarinic acetylcholine receptor M1"}, "[5]": {"target": "Muscarinic acetylcholine receptor M3 (Rattus norvegicus) (UniProt P08483)", "sequence (P08483 whole entry, looked up)": "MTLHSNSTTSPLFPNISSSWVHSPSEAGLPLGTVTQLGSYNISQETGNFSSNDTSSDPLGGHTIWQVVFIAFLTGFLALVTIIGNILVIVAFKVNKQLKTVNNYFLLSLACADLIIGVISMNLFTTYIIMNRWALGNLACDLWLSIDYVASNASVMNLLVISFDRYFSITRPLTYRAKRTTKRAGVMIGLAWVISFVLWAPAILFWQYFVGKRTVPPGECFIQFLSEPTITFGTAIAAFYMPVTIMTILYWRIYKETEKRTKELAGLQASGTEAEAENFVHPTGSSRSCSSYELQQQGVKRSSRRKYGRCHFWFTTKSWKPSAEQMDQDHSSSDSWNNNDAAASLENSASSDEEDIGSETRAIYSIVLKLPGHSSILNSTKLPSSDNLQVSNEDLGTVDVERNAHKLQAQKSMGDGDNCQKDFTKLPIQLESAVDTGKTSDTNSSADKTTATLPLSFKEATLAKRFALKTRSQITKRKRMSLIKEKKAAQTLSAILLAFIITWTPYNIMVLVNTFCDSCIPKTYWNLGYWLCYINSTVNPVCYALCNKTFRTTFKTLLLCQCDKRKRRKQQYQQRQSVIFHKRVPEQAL", "description": "Compound was evaluated for the affinity at the cloned radio labelled Muscarinic acetylcholine receptor M3"}, "[6]": {"target": "T5, 5-hydroxytryptamine receptor 1A (Rattus norvegicus, UniProt P19327)", "T5 sequence (P19327 whole entry)": "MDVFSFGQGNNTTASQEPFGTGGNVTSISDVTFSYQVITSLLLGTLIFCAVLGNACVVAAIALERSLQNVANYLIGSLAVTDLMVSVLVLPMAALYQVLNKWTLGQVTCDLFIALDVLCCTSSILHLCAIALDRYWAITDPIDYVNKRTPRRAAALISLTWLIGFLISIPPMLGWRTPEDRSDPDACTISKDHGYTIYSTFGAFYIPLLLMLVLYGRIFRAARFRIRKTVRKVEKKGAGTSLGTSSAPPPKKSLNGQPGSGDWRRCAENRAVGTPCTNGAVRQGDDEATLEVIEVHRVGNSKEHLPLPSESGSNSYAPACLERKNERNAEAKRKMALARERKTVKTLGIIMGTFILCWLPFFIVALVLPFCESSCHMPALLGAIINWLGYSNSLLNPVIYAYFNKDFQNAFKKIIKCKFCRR", "assay": "Affinity at [3H]8-OH-DPAT-labeled 5-hydroxytryptamine 1A receptor in rat brain homogenate was determined", "type": "tissue-based"}, "[7]": {"species": "Rattus norvegicus", "assay": "Effective dose for LSD-like behavioral effect in rats", "type": "functional"}, "[8]": {"target": "T6, 5-hydroxytryptamine receptor 2A (Homo sapiens, UniProt P28223)", "T6 sequence (P28223 whole entry)": "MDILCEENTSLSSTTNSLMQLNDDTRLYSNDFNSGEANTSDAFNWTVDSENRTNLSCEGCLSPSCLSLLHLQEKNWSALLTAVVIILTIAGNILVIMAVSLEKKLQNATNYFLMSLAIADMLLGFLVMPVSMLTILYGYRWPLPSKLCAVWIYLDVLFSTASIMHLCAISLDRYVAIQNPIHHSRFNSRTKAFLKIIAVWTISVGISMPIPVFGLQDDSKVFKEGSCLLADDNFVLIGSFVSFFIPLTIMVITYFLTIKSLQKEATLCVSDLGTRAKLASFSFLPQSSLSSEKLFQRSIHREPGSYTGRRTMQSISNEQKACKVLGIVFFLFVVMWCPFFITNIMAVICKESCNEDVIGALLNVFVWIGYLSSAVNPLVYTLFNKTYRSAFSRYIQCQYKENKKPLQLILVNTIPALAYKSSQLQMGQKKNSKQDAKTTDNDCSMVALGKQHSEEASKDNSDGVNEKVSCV", "assay": "Binding ability of compound at cloned human 5-hydroxytryptamine 2A receptor using [125 I]DOI as radioligand"}, "[9]": {"target": "T7, 5-hydroxytryptamine receptor 2B (Homo sapiens, UniProt P41595)", "T7 sequence (P41595 whole entry)": "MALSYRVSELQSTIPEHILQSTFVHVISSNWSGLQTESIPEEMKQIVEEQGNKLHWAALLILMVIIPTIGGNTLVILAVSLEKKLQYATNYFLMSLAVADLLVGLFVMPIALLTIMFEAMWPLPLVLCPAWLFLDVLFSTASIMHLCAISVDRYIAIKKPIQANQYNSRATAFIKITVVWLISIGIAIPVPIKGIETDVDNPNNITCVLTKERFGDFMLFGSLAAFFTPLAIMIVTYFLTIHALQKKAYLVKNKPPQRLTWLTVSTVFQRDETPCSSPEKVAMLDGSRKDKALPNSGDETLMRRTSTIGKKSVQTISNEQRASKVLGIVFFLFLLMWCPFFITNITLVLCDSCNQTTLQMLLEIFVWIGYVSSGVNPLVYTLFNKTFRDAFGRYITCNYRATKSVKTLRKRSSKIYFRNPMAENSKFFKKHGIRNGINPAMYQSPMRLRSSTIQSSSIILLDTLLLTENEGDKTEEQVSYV", "assay": "Binding ability of compound at cloned human 5-hydroxytryptamine 2B receptor using [3H]5-HT 2B as radioligand"}, "[10]": {"target": "T7, 5-hydroxytryptamine receptor 2B", "assay": "Binding ability of compound at cloned human 5-hydroxytryptamine 2B receptor using [3H]rauwolscine as radioligand"}, "[11]": {"target": "5-hydroxytryptamine receptor 2A (Rattus norvegicus, UniProt P14842)", "sequence (P14842 whole entry)": "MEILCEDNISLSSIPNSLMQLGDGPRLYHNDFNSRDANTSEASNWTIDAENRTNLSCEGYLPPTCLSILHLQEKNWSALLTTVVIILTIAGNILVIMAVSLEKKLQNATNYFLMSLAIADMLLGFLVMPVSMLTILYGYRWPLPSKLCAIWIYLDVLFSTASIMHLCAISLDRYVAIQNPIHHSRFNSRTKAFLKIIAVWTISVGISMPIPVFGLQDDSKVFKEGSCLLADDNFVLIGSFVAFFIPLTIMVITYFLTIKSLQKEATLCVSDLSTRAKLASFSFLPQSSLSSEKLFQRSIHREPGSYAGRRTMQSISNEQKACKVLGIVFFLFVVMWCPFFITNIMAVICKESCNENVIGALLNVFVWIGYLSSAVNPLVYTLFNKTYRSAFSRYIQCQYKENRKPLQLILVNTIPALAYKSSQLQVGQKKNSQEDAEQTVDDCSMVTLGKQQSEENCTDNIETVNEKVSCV", "assay": "Affinity at [3H]ketanserin-labeled 5-hydroxytryptamine 2A receptor in rat brain homogenate was determined", "type": "tissue-based"}, "[12]": {"target": "T8, 5-hydroxytryptamine receptor 2C (Homo sapiens, UniProt P28335)", "T8 sequence (P28335 whole entry)": "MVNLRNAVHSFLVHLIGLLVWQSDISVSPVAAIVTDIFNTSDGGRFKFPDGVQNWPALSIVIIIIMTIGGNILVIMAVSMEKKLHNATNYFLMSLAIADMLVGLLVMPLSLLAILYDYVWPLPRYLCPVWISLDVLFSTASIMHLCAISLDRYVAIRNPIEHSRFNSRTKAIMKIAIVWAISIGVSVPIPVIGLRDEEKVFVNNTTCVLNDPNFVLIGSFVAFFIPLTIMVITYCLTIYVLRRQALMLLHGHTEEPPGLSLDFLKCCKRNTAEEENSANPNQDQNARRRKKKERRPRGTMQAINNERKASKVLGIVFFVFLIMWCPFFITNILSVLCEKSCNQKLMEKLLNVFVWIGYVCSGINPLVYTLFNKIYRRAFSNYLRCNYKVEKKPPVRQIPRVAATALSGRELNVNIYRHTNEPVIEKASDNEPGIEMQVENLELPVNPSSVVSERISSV", "assay": "Binding ability of compound at cloned human 5-hydroxytryptamine 2C receptor using [125 I]DOI as radioligand"}, "[13]": {"target": "T8, 5-hydroxytryptamine receptor 2C", "assay": "Binding ability of compound at cloned human 5-hydroxytryptamine 2C receptor using [3H]- mesulergine as radioligand"}, "[14]": {"target": "T6, 5-hydroxytryptamine receptor 2A", "assay": "Binding ability of compound at cloned human 5-hydroxytryptamine 2A receptor using [3H]ketanserin as radioligand"}, "[15]": {"tested_on": "Rattus norvegicus", "assay": "Percentage of animals failing to emit 50 presses on either lever within the 15-min test period in rat at 5.84 mg/kg (16 uM/kg)", "type": "functional"}, "[16]": {"tested_on": "Rattus norvegicus", "assay": "Percentage of animals failing to emit 50 presses on either lever within the 15-min test period in rat at 0.365 mg/kg (1 uM/kg)", "type": "functional"}, "[17]": {"tested_on": "Rattus norvegicus", "assay": "Percentage of animals failing to emit 50 presses on either lever within the 15-min test period in rat at 0.78 mg/kg (2 umol/kg)", "type": "functional"}, "[18]": {"tested_on": "Rattus norvegicus", "assay": "Percentage of animals failing to emit 50 presses on either lever within the 15-min test period in rat at 1.46 mg/kg (4 uM/kg)", "type": "functional"}, "[19]": {"species": "Rattus norvegicus", "assay": "(§1) Effective dose for LSD-like behavioral effect in rats; Not significant", "type": "functional, organism-based"}, "[20]": {"species": "Rattus norvegicus", "assay": "as §1", "type": "functional, organism-based", "remark": "listed apart in the source"}, "[21]": {"species": "Rattus norvegicus", "assay": "Percentage of animals emitting 50 presses on the LSD appropriate lever during the test period", "type": "functional"}, "[22]": {"tested_on": "Rattus norvegicus", "assay": "Percentage of animals failing to emit 50 presses on either lever within the 15-min test period in rat at 2.92 mg/kg (8 uM/kg)", "type": "functional"}},
  "note": "Active and inactive are the calls of the source. No cut-off for these calls is given here.",
  "data": [
    {"smiles": "COc1ccc2c3c1C[C@H](N)C[C@@H]3CO2", "values": [
      {"measurement": "K 0.5", "setting": "[1]", "result": 33.4, "unit": "µM"},
      {"measurement": "K 0.5", "setting": "[2]", "result": 240, "unit": "nM"},
      {"measurement": "K 0.5", "setting": "[3]", "result": 236, "unit": "nM"},
      {"measurement": "K 0.5", "setting": "[4]", "result": 149, "unit": "nM"},
      {"measurement": "K 0.5", "setting": "[5]", "result": 129, "unit": "nM"}
    ]},
    {"smiles": "COc1cc(C[C@@H](C)N)c(OC)cc1Br", "values": [
      {"measurement": "Ki", "setting": "[6]", "result": 6100, "unit": "nM"},
      {"measurement": "ED50", "setting": "[7]", "result": 1.12, "unit": "mg/kg"}
    ]},
    {"smiles": "C[C@@H](N)Cc1c2c(c(Br)c3c1OCC3)OCC2", "values": [
      {"measurement": "Ki", "setting": "[6]", "result": 4300, "unit": "nM"},
      {"measurement": "Ki", "setting": "[8]", "result": 0.48, "unit": "nM"},
      {"measurement": "Ki", "setting": "[9]", "result": 1.6, "unit": "nM"},
      {"measurement": "Ki", "setting": "[10]", "result": 1.15, "unit": "nM"},
      {"measurement": "Ki", "setting": "[11]", "result": 18, "unit": "nM"},
      {"measurement": "Ki", "setting": "[12]", "result": 0.3, "unit": "nM"},
      {"measurement": "Ki", "setting": "[13]", "result": 2.28, "unit": "nM"},
      {"measurement": "ED50", "setting": "[7]", "result": 0.061, "unit": "mg/kg"},
      {"measurement": "Ki", "setting": "[14]", "result": 10.7, "unit": "nM"}
    ]},
    {"smiles": "COc1cc(Br)c2c3c1C[C@H](N)C[C@H]3CO2", "values": [
      {"measurement": "Ki", "setting": "[8]", "result": 8500, "unit": "nM"},
      {"measurement": "Ki", "setting": "[9]", "result": 11200, "unit": "nM"},
      {"measurement": "Ki", "setting": "[11]", "result": 3880, "unit": "nM"},
      {"measurement": "Ki", "setting": "[12]", "result": 4190, "unit": "nM"},
      {"measurement": "D", "setting": "[15]", "result": 11, "unit": "%"},
      {"measurement": "D", "setting": "[16]", "result": 0, "unit": "%"},
      {"measurement": "D", "setting": "[17]", "result": 0, "unit": "%"},
      {"measurement": "D", "setting": "[18]", "result": 0, "unit": "%"},
      {"measurement": "ED50", "setting": "[19]", "result": "inactive"},
      {"measurement": "ED50", "setting": "[20]", "result": "inactive"},
      {"measurement": "SDL", "setting": "[21]", "result": 27, "unit": "%"},
      {"measurement": "D", "setting": "[22]", "result": 0, "unit": "%"}
    ]}
  ]
}
